Structures can show the parent of a compound that is named as a salt.
Legend:
[1] = In vivo fluorescence imaging (biodistribution after oral dose); design: species or system BALB/c mice
Method: To observe the biodistribution of sublancin in vivo, sublancin was labeled with the near-infrared dye Cy7 monoreactive NHS ester (Invitrogen, CA, USA). Female BALB/c mice of 6–8 weeks old were given an oral dose of 100 μL Cy7-stained sublancin or free Cy7. At the indicated time points (0 h, 30 min, 2 h, 6 h, 12 h, 24 h, and 48 h), mice were anesthetized with 2.5% isoflurane and then placed in the in vivo Imaging System (FXPro Kodak). The excitation and emission bandpass filter was 730 nm and 790 nm, respectively. Fluorescence signals were collected by Carestream Molecular Imaging Software. At 12 h, mice were euthanized and the ex vivo optical images of the intestine, heart, liver, spleen, lung, and kidney were recorded using the same system.

[2] = Peripheral hemogram analysis in cyclophosphamide-treated mice; assay type: in vivo, BALB/c mice; conditions: gavage 10.0 mg/kg for 7 days, compared with the NC treatment (so in the source), n = 6
[3] = tested on: IL-1β mRNA; assay: IL-1β gene expression in peritoneal macrophages after oral administration (real-time PCR); assay type: in vivo, BALB/c mice; conditions: oral 2.5 mg/kg BW/d for 7 days, vs control, P < 0.05, n = 6
[4] = tested on: IL-6 mRNA; assay: IL-6 gene expression in peritoneal macrophages after oral administration (real-time PCR); assay type: in vivo, BALB/c mice; conditions: oral 2.5 mg/kg BW/d for 7 days, vs control, P < 0.05, n = 6
[5] = tested on: TNF-α mRNA; assay: TNF-α gene expression in peritoneal macrophages after oral administration (real-time PCR); assay type: in vivo, BALB/c mice; conditions: oral 2.5 mg/kg BW/d for 7 days, vs control, P < 0.05, n = 6

Row | Structure (SMILES) | Fluorescence in the excised intestine (ex vivo images) ([1]; 12 h after gavage) | Fluorescent signal in the heart, liver, spleen, lung, and kidney (ex vivo images) ([1]; 12 h after gavage) | Presence in the intestine (in vivo fluorescence) ([1]; oral dose of 100 μL, twelve hours after administration) | Fluorescent signal in vivo ([1]; oral dose of 100 μL, within 6 h) | HGB [2] | Number of RBC [2] | Number of WBC [2] | Number of platelets [2] | Gene expression level of IL-1β in peritoneal macrophages [3] | Gene expression level of IL-6 in peritoneal macrophages [4] | Gene expression level of TNF-α in peritoneal macrophages [5]
1 | CCN1C(=CC=CC=CC=CC2=[N+](CCCCCC(=O)O)c3ccc(S(=O)(=O)O)cc3C2(C)C)C(C)(C)c2cc(S(=O)(=O)[O-])ccc21 [free Cy7] | only very little | Almost no fluorescent signal | most of the free Cy7 had disappeared | weak fluorescent signals |  |  |  |  |  |  | 
2 | c1ccc([C@H]2CN3CCSC3=N2)cc1 [levamisole hydrochloride] |  |  |  |  | higher | higher | higher | higher | higher than that in the control group | higher than that in the control group | higher than that in the control group
